Columns and labels:
Format in all cases: cell-based, human
Phospho-ULK Ser555 = assay: Western blot, phospho-ULK1 Ser555; settings: A549, all time periods, mostly after 24 and 48 h
Text: ULK1/AMPK. ULK1 is a serine/threonine protein kinase. The ULK1 complex controls the formation of the phagophore, the initial autophagosomal precursor membrane structure. Upon induction of autophagy, the ULK1 complex translocates to autophagy initiation sites and regulates the recruitment of a second kinase complex, VPS34. ULK1 can be inhibited by phosphorylation by mammalian target of rapamycin complex 1 (mTORC1) or activated after AMP-activated protein kinase (AMPK) phosphorylation. Under conditions of nutrient deficiency, AMPK is activated, which directly activates ULK1. The kinase is phosphorylated, i.e., activated by an increased AMP/ATP ratio due to cellular and environmental stress. AMPK also inactivates mTORC1 and thus blocks its inhibitory action on autophagy activation.
(§1) A549 cells were seeded on Petri dishes (55 cm^2) at a density of 1 × 10^6 and allowed to culture in the medium. After 24 h, the test substance was added, and the cells were incubated for 24, 48 and 72 h. […] After lysis, the cells were sonicated, and the protein concentration in the samples was quantified using the Pierce® BCA Protein Assay Kit (Thermo Scientific, Rockford, IL, USA) and measured by an automated Cytation™ 3 Cell Imaging Multi-Mode Reader (Biotek) at a wavelength of 570 nm. […]

p62/SQSTM1 = assay: Western blot, p62; settings: A549, 24, 48, 72 h, p < 0.001 vs DMSO
Text: Protein p62, also known as sequestosome 1, is a multifunctional, classic autophagy receptor, considered together with LC3AB as an important marker of ongoing autophagic flux. It is involved in cell signaling, metabolism, oxidative stress and cell death. Its main function is the degradation of misfolded proteins through the ubiquitin–proteasome system (UPS) and autophagy, thereby maintaining intracellular proteostasis. P62 binds the autophagosomal membrane protein LC3 and brings p62-containing cytoplasmic contents to the autophagosome for degradation. […] This protein is normally degraded during autophagy after interaction with LC3 II [26]. On the other hand, accumulation of p62 has also been cited in cancer cells exposed to a variety of potential anticancer compounds [27, 28, 29].
as §1

[1] = tested on: glutathione peroxidase (GPx); assay: GPx activity in treated A549 cells; settings: A549, 20 µM
Text: Glutathione is an important intracellular molecule involved in carcinogen detoxification. On the other hand, its elevated state in cancer cells is often associated with resistance to chemotherapy. […] Because high levels of GSH are associated with cancer cell resistance, the GHS-depleting effect of compound 49 could be interesting due to new cancer chemosensitizer development. In the case of GST and GR, we hypothesize that an increase in the activity of both enzymes may be a compensatory mechanism induced by GSH depletion.
Both floating and adherent A549 cells were harvested at 24, 48, and 72 h after treatment with compound 49 (20 µM). SOD determination kit, Glutathione Peroxidase Cellular Activity Assay kit, Glutathione Reductase Assay Kit and Glutathione-S-transferase (GST) Assay Kit (all Sigma Aldrich, Germany) were used for the detection of relevant enzyme activity. Reduced glutathione (GSH) content was measured by the method originally described by Floreani et al.. Assays were performed on an M 501 single beam UV/VIS spectrophotometer (Spectronic Camspec Ltd., Leeds, United Kingdom). All measured parameters were calculated per milligram or gram of protein determined using the bicinchoninic acid assay.

Structure (SMILES): CC(C)(C)OC(=O)n1cc(CNC(=O)Nc2ccc(NC(=O)NCc3cn(C(=O)OC(C)(C)C)c4ccccc34)cc2)c2ccccc21 [Compound 49, N,N′-(1,4-phenylene)bis{N′-[1-(tert-butoxycarbonyl)indol-3-yl]methyl (urea)}]
- phosphorylated form of ULK1 at Ser555 (Phospho-ULK Ser555): significant upregulation
- p62 expression (p62/SQSTM1): significant increase
- GPx ([1]; 24 h): 0.148 ± 0.021 μkat/mg Prot
- GPx ([1]; 48 h): 0.139 ± 0.028 μkat/mg Prot
- GPx ([1]; 72 h): 0.077 ± 0.038 μkat/mg Prot
